Data published in article PMC7738869, “A novel STAT3 inhibitor W2014-S regresses human non-small cell lung cancer xenografts and sensitizes EGFR-TKI acquired resistance” (Theranostics, 2021).

Key:
PC-9/GR cells = assay: Cell apoptosis assay (Annexin V-FITC/PI flow cytometry), PC-9/GR; type: cell-based, human; conditions: gefitinib 2 μM and/or W2014-S 1 μM, 72 h
Method: Briefly, aliquots of 2 × 10^5 cells were seeded into 6-well plates and incubated for 24 h at 37 °C. […] After trypsinization and gently washing cells once with medium, the cells were washed twice with cold PBS. The precipitation was resuspended by 400 μL of 1 × binding buffer, and then resuspended cells were transferred into new 1.5 mL EP tubes. Then 3 μL of Annexin V-FITC and 5 μL of propidium iodide were added to the resuspended cells with further incubation at room temperature for 15 min in the dark. The analysis was done on Guava easyCyte (USA) and FlowJo 7.6 software.

PC-9/GR xenografts = conditions: gefitinib intragastric 20 mg/kg per day, W2014-S 10 mg/kg/day, 21 d
Method: For PDX model, the PDX sample was from The Jackson Laboratory. […] The tumor sample were cut into approximately 1 mm^3, and the tissue was pushed under skin of mice by TROCHAR. When tumor volumes reached approximately 100 mm^3, mice were randomly distributed into groups of 7 mice. […] Tumor size was measured every two days by vernier caliper. The average tumor volume in each group was calculated based on the equation for a prolate spheroid (tumor volume = (short-diameter)^2 × large-diameter × π / 6 ) and expressed in mm^3.

A549 cells [1] = assay: Colony formation assay, A549; type: cell-based, human; conditions: A549, as low as 0.3 μM
[2] = molecular target: full-length wild-type STAT3 (Homo sapiens, UniProt P40763); assay: Surface plasmon resonance analysis of binding to STAT3; conditions: SPR
Method: Biacore 8K and Biacore Insight Evaluation software were used to analyze the interaction between the agents and the protein full-length wild-type STAT3 to detect the binding affinity. Purified STAT3 (100 μg/mL) without Tris and glycerin was injected onto the CM5 Chip (GE, USA) for immobilization. Several concentrations of W2014-S or W2014-R dissolved in running buffer (1×PBS with filtration, 0.01% DMSO) were flown over the chip to produce response signals. The kinetics and affinities were calculated by the Biacore Insight Evolution software, and the results were determined as the binding affinity (KD).

A549 cells [3] = assay: Cell viability assay (CCK-8), A549; type: cell-based; conditions: Homo sapiens, A549, 72 h, read-out: IC50 cell proliferation
Method: (§1) Cell proliferation was measured using the Cell Counting Kit-8 (CCK-8, B34304, Bimake, USA). A549 (2 × 10^3/100 μL/well), PC-9 (3 × 10^3/100 μL/well) or PC-9/GR cells (3 × 10^3/100 μL/well) were plated into each well of 96-well plates (Costar, USA). […] Then, 10 μL of CCK-8 was added to each well, and cells were incubated for 1-4 h until the color of untreated controls turned to orange. The absorbance (A) was measured by a microplate reader (FLUOstar Omega-ACU, USA) at test and reference wavelengths of 450 nm. The percentage of growth was calculated as Cell viability (%) = [A (Compound +) - A (Blank) ] / [A (Compound -) - A (Blank) ] × 100%. Cell viability meant proliferation of cells. Each experiment was done at least in triplicate, and thrice independently.

A549 cells [4] = assay: Transwell cell invasion assay, A549; conditions: A549, 1 μM
Method: Transwell invasion assays were performed as previously reported [37] using Transwell chamber (Costar, USA). […] Data from triplicates experiments were pooled and plotted as shown.

PC-9 cells [5] = assay: Colony formation assay, PC-9; type: cell-based, human; conditions: PC-9, as low as 0.3 μM
A549 cells [6] = assay: Wound healing assay for migration; type: cell-based, human; conditions: 48 h
Method: The motility of cells was measured by wound healing assay. Cells were seeded into 6-well plates and cultured to 90-100% confluent after 24 h. Wounds were made in each well of 6-well plates using pipette tips. […] The migration of cells was visualized under a microscope (4 ×, Nikon, Japan) and photographed in different time points (0 and 48 h).

PC-9 cells [7] = assay: Cell viability assay (CCK-8), PC-9; type: cell-based; conditions: Homo sapiens, PC-9, 72 h, read-out: IC50 cell proliferation
Method: as §1

full-length wild-type STAT3, sequence (P40763 whole entry): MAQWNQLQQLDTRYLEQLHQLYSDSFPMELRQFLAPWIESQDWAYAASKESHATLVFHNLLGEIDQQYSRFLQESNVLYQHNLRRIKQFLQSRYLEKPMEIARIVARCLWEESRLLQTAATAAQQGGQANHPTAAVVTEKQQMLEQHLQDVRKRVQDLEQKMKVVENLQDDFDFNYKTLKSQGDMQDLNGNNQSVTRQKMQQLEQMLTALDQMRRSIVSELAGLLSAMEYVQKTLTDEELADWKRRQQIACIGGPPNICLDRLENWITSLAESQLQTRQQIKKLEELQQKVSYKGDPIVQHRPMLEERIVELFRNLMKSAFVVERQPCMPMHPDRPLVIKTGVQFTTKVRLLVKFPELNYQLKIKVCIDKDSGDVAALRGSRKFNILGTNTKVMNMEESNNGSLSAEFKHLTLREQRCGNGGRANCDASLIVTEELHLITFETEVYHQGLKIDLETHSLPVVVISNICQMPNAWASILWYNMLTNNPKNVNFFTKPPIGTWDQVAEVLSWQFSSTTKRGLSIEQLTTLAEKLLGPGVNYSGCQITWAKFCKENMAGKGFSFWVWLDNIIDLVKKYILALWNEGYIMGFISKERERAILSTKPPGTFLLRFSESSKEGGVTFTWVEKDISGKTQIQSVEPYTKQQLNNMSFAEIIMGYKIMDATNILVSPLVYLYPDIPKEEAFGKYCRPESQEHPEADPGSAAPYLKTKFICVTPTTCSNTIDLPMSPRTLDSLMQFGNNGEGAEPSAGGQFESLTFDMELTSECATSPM

Q: `COc1cc2ncnc(Nc3ccc(F)c(Cl)c3)c2cc1OCCCN1CCOCC1` [Gefitinib, reference compound] was tested. Which Q1 (PC-9/GR cells) did it give?
A: The Q1 was 0.103%.

Q: What about the Q2 (PC-9/GR cells) of the same compound?
A: Its Q2 is 4.61%.

Q: What about the Q3 (PC-9/GR cells) of the same compound?
A: The Q3 was 3.05%.

Q: And the Q4 (PC-9/GR cells)?
A: Its Q4 is 92.2%.

Q: What about the xenograft tumor growth (PC-9/GR xenografts) of the same compound?
A: The xenograft tumor growth was “slight inhibitory effect”.

Q: For `C[C@@H](Oc1ccc(-c2nc3nc(C4=CCN(C(=O)OC(C)(C)C)CC4)ccc3[nH]2)cc1)c1ccccc1` [W2014-R], which colony formation (A549 cells [1]) is on record?
A: Its colony formation is “significantly suppressed the colony formation”.

Q: And the Kd [2]?
A: The Kd was 3390 nM.

Q: What about the IC50 (A549 cells [3]) of the same compound?
A: Its IC50 is 2420 nM.

Q: And the cell invasion (A549 cells [4])?
A: Its cell invasion is “not”.

Q: What about the colony formation (PC-9 cells [5]) of the same compound?
A: The colony formation was “significantly suppressed the colony formation”.

Q: And the cell migration (A549 cells [6])?
A: The cell migration was “slightly inhibition”.

Q: What about the IC50 (PC-9 cells [7]) of the same compound?
A: The IC50 was 2660 nM.
